Data reported in the kinase profiling compilation of Christmann-Franck et al. (2016).

Key:
Assay in all cases: radiometric filter-binding kinase assay
PAK7 (human) = PAK7 (human) (UniProt Q9P286)
NEK2 (human) = NEK2 (human) (UniProt P51955)
ERBB4 (human) = ERBB4 (human) (UniProt Q15303)
CaMK1 (human) = CaMK1 (human) (UniProt Q14012)
HIPK3 (human) = HIPK3 (human) (UniProt Q9H422)
CDK2 CCNA2 (human) = CDK2 CCNA2 (human) (UniProt P20248+P24941)
MAPK15 (human) = MAPK15 (human) (UniProt Q8TD08)
INSR (human) = INSR (human) (UniProt P06213)
EPHB2 (human) = EPHB2 (human) (UniProt P29323)
PRKAA1 or PRKAA2 (rat) = details: accession and sequence are those of the human protein
SRPK1 (human) = SRPK1 (human) (UniProt Q96SB4)
JAK2 JH1 JH2 (human) = JAK2 JH1 JH2 (human) (UniProt O60674)
MAP2K1 (human) = MAP2K1 (human) (UniProt Q02750)
PHKG1 (human) = PHKG1 (human) (UniProt Q16816)
MARK1 (human) = MARK1 (human) (UniProt Q9P0L2)
MARK2 (human) = MARK2 (human) (UniProt Q7KZI7)
NUAK1 (human) = NUAK1 (human) (UniProt O60285)
MINK1 (human) = MINK1 (human) (UniProt Q8N4C8)
MAPKAPK2 (human) = MAPKAPK2 (human) (UniProt P49137)
RIPK2 (human) = RIPK2 (human) (UniProt O43353)
BTK (human) = BTK (human) (UniProt Q06187)
Sequence of BTK (human) (Q06187 whole entry, looked up): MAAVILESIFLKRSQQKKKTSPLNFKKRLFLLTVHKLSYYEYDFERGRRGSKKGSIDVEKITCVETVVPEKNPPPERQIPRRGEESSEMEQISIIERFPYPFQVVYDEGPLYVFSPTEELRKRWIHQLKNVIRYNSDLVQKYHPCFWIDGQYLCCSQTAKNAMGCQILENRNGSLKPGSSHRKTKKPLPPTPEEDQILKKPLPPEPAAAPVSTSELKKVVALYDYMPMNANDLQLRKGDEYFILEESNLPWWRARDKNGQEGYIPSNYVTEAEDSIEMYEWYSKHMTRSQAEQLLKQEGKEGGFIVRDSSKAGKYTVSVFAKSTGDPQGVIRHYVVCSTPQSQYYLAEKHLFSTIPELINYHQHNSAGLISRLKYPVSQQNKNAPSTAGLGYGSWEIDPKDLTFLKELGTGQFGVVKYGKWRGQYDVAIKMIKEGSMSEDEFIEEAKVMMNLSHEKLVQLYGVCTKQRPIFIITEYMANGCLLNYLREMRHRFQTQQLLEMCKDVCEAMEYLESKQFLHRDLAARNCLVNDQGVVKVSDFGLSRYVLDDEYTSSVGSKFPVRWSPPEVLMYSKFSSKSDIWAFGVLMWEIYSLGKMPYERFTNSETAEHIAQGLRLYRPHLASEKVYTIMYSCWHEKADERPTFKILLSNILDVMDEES

CAMKK2 (human) = CAMKK2 (human) (UniProt Q96RR4)
EPHA2 (human) = EPHA2 (human) (UniProt P29317)
MST4 (human) = MST4 (human) (UniProt Q9P289)
DYRK2 (human) = DYRK2 (human) (UniProt Q92630)
LCK (mouse) = details: accession and sequence are those of the human protein
NEK6 (human) = NEK6 (human) (UniProt Q9HC98)
INSRR (human) = INSRR (human) (UniProt P14616)
CSK (human) = CSK (human) (UniProt P41240)
Sequence of CSK (human) (P41240 whole entry, looked up): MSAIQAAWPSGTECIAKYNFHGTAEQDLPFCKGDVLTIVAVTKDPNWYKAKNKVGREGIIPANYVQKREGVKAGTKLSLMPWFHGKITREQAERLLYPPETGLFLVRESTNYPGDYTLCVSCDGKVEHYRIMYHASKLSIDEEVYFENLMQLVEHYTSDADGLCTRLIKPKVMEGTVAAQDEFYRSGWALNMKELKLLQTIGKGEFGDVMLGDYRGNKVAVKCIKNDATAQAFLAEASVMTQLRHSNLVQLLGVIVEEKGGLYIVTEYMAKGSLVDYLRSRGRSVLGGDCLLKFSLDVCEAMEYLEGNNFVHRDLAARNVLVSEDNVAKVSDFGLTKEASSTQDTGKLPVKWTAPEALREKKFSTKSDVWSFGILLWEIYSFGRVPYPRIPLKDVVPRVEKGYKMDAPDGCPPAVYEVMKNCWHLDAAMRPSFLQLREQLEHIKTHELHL

MKNK1 (human) = MKNK1 (human) (UniProt Q9BUB5)
Sequence of MKNK1 (human) (Q9BUB5 whole entry, looked up): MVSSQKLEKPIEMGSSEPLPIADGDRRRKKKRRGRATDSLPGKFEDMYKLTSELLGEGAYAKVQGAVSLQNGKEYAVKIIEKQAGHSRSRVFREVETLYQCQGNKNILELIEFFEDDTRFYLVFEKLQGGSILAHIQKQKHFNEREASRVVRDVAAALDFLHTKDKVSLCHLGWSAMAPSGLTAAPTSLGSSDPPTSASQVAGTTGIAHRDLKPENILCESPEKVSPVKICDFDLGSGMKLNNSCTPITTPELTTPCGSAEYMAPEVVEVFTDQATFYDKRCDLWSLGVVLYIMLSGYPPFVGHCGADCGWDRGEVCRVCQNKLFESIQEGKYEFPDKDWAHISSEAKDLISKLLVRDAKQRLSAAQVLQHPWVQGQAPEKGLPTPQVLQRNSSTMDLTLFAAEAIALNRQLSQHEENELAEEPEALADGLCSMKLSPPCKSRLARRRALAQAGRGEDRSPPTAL

RPS6KA5 KD1 KD2 (human) = RPS6KA5 KD1 KD2 (human) (UniProt O75582)
Sequence of RPS6KA5 KD1 KD2 (human) (O75582 whole entry, looked up): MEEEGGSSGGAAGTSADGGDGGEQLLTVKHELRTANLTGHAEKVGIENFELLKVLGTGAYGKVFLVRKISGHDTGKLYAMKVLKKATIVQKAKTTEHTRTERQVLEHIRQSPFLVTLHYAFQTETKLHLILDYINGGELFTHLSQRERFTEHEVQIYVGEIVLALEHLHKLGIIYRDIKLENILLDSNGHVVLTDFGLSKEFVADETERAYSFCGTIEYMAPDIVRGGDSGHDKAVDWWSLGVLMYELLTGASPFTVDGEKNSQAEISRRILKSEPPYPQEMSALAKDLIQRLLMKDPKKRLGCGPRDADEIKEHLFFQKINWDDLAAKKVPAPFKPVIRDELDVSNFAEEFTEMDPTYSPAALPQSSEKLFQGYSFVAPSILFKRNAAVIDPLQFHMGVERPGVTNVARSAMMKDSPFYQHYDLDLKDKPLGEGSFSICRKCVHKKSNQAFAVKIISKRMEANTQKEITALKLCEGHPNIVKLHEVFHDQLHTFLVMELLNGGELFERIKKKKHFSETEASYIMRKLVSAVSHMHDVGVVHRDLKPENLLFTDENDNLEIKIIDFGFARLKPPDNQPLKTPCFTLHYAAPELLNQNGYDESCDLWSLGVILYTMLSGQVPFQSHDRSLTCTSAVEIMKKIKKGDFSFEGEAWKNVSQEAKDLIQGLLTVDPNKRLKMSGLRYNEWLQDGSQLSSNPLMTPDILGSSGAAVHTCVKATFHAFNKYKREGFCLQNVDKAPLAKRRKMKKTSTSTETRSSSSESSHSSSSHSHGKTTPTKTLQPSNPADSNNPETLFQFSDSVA

BRSK1 (human) = BRSK1 (human) (UniProt Q8TDC3)
PRKCA (human) = PRKCA (human) (UniProt P17252)
PRKACA (human) = PRKACA (human) (UniProt P17612)
EPHA4 (human) = EPHA4 (human) (UniProt P54764)

Sequence of PAK7 (human) (Q9P286 whole entry, looked up): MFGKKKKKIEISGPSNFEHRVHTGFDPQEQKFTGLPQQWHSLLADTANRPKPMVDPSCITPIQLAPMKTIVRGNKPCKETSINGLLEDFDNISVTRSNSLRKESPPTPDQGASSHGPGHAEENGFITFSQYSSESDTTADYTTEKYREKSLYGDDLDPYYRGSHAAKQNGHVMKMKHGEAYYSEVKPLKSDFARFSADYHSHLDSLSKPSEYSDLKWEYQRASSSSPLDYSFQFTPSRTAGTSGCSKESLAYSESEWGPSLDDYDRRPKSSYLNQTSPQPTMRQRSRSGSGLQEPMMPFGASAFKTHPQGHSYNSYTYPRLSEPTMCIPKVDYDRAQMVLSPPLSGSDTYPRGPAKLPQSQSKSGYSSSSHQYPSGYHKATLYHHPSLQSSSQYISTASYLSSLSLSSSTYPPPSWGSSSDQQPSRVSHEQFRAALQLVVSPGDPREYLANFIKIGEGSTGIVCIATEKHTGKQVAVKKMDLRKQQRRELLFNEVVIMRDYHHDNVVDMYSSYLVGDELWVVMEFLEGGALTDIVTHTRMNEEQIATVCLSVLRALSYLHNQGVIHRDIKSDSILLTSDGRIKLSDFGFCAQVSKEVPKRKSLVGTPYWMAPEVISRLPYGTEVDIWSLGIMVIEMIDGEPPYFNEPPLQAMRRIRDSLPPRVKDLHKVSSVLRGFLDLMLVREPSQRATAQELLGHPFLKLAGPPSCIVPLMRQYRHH
Sequence of ERBB4 (human) (Q15303 whole entry, looked up): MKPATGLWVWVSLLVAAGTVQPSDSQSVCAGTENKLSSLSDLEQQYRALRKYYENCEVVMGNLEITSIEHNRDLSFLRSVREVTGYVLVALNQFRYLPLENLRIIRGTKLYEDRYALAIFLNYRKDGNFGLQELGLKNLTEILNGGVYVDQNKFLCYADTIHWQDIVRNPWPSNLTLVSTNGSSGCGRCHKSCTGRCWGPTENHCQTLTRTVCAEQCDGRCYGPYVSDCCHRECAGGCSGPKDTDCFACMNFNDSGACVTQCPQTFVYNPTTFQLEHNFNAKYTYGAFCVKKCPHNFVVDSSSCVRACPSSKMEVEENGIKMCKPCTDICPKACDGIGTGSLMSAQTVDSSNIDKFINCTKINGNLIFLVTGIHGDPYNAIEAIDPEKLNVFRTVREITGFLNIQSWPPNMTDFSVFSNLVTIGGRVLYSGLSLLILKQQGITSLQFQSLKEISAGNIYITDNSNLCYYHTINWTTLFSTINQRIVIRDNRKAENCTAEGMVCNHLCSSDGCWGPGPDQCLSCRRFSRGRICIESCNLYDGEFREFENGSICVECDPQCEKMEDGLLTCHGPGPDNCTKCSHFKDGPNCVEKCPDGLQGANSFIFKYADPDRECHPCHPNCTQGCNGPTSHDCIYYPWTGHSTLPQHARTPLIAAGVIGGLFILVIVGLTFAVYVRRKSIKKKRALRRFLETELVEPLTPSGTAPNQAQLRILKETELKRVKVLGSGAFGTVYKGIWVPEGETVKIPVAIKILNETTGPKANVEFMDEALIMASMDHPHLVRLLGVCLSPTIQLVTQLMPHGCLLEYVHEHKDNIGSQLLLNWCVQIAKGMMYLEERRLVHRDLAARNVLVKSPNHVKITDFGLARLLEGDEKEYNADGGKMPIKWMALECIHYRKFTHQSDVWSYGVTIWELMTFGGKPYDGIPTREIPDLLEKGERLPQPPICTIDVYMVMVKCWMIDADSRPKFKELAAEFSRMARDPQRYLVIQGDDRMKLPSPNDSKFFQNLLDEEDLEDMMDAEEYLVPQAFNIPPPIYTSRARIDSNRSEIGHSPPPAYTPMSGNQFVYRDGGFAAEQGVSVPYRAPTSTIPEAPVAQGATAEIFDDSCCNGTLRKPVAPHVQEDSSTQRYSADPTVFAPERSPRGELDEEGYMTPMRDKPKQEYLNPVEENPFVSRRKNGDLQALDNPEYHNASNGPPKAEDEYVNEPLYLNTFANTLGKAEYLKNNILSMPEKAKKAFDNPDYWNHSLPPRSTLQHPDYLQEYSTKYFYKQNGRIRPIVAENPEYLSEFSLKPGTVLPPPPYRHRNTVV

Structure (SMILES): CN(C)C/C=C/C(=O)Nc1cccc(C(=O)Nc2ccc(Nc3nccc(-c4cccnc4)n3)cc2)c1
- residual activity (PAK7 (human); compound 0.1 µM): 89%
- residual activity (PAK7 (human); compound 1.0 µM): 91%
- residual activity (NEK2 (human); compound 0.1 µM): 93%
- residual activity (ERBB4 (human); compound 1.0 µM): 106%
- residual activity (CaMK1 (human); compound 0.1 µM): 87%
- residual activity (CaMK1 (human); compound 1.0 µM): 92%
- residual activity (HIPK3 (human); compound 0.1 µM): 113%
- residual activity (CDK2 CCNA2 (human); compound 0.1 µM): 85%
- residual activity (CDK2 CCNA2 (human); compound 1.0 µM): 72%
- residual activity (MAPK15 (human); compound 0.1 µM): 46%
- residual activity (MAPK15 (human); compound 1.0 µM): 20%
- residual activity (INSR (human); compound 0.1 µM): 81%
- residual activity (EPHB2 (human); compound 0.1 µM): 101%
- residual activity (EPHB2 (human); compound 1.0 µM): 103%
- residual activity (PRKAA1 or PRKAA2 (rat); compound 0.1 µM): 92%
- residual activity (PRKAA1 or PRKAA2 (rat); compound 1.0 µM): 87%
- residual activity (SRPK1 (human); compound 0.1 µM): 105%
- residual activity (SRPK1 (human); compound 1.0 µM): 104%
- residual activity (JAK2 JH1 JH2 (human); compound 0.1 µM): 85%
- residual activity (JAK2 JH1 JH2 (human); compound 1.0 µM): 77%
- residual activity (MAP2K1 (human); compound 0.1 µM): 98%
- residual activity (MAP2K1 (human); compound 1.0 µM): 113%
- residual activity (PHKG1 (human); compound 0.1 µM): 94%
- residual activity (PHKG1 (human); compound 1.0 µM): 83%
- residual activity (MARK1 (human); compound 0.1 µM): 91%
- residual activity (MARK1 (human); compound 1.0 µM): 80%
- residual activity (MARK2 (human); compound 0.1 µM): 94%
- residual activity (MARK2 (human); compound 1.0 µM): 85%
- residual activity (NUAK1 (human); compound 0.1 µM): 35%
- residual activity (NUAK1 (human); compound 1.0 µM): 82%
- residual activity (MINK1 (human); compound 0.1 µM): 92%
- residual activity (MINK1 (human); compound 1.0 µM): 69%
- residual activity (MAPKAPK2 (human); compound 0.1 µM): 91%
- residual activity (MAPKAPK2 (human); compound 1.0 µM): 106%
- residual activity (RIPK2 (human); compound 1.0 µM): 42%
- residual activity (BTK (human); compound 1.0 µM): 85%
- residual activity (CAMKK2 (human); compound 0.1 µM): 87%
- residual activity (CAMKK2 (human); compound 1.0 µM): 35%
- residual activity (EPHA2 (human); compound 0.1 µM): 110%
- residual activity (EPHA2 (human); compound 1.0 µM): 125%
- residual activity (MST4 (human); compound 0.1 µM): 98%
- residual activity (MST4 (human); compound 1.0 µM): 104%
- residual activity (DYRK2 (human); compound 1.0 µM): 56%
- residual activity (LCK (mouse); compound 0.1 µM): 95%
- residual activity (LCK (mouse); compound 1.0 µM): 101%
- residual activity (NEK6 (human); compound 0.1 µM): 88%
- residual activity (NEK6 (human); compound 1.0 µM): 96%
- residual activity (INSRR (human); compound 0.1 µM): 72%
- residual activity (INSRR (human); compound 1.0 µM): 64%
- residual activity (CSK (human); compound 1.0 µM): 103%
- residual activity (MKNK1 (human); compound 0.1 µM): 84%
- residual activity (RPS6KA5 KD1 KD2 (human); compound 0.1 µM): 88%
- residual activity (RPS6KA5 KD1 KD2 (human); compound 1.0 µM): 91%
- residual activity (BRSK1 (human); compound 0.1 µM): 94%
- residual activity (BRSK1 (human); compound 1.0 µM): 86%
- residual activity (PRKCA (human); compound 0.1 µM): 89%
- residual activity (PRKCA (human); compound 1.0 µM): 97%
- residual activity (PRKACA (human); compound 0.1 µM): 97%
- residual activity (PRKACA (human); compound 1.0 µM): 108%
- residual activity (EPHA4 (human); compound 0.1 µM): 92%
- residual activity (EPHA4 (human); compound 1.0 µM): 105%

Structure (SMILES): Oc1ccc2ccccc2c1SSc1c(O)ccc2ccccc12
- residual activity (PAK7 (human); compound 1.0 µM): 99%
- residual activity (PAK7 (human); compound 5.0 µM): 49%
- residual activity (PAK7 (human); compound 10.0 µM): 121%
- residual activity (NEK2 (human); compound 1.0 µM): 10%
- residual activity (NEK2 (human); compound 5.0 µM): 8%
- residual activity (NEK2 (human); compound 10.0 µM): 54%
- residual activity (ERBB4 (human); compound 1.0 µM): 62%
- residual activity (ERBB4 (human); compound 5.0 µM): 49%
- residual activity (CaMK1 (human); compound 1.0 µM): 6%
- residual activity (CaMK1 (human); compound 5.0 µM): 3%
- residual activity (CaMK1 (human); compound 10.0 µM): 7%
- residual activity (HIPK3 (human); compound 1.0 µM): 37%
- residual activity (HIPK3 (human); compound 5.0 µM): 33%
- residual activity (CDK2 CCNA2 (human); compound 1.0 µM): 101%
- residual activity (CDK2 CCNA2 (human); compound 5.0 µM): 106%
- residual activity (CDK2 CCNA2 (human); compound 10.0 µM): 88%
- residual activity (MAPK15 (human); compound 1.0 µM): 2%
- residual activity (MAPK15 (human); compound 5.0 µM): 1%
- residual activity (MAPK15 (human); compound 10.0 µM): 49%
- residual activity (INSR (human); compound 1.0 µM): 110%
- residual activity (INSR (human); compound 5.0 µM): 93%
- residual activity (INSR (human); compound 10.0 µM): 113%
- residual activity (EPHB2 (human); compound 1.0 µM): 137%
- residual activity (EPHB2 (human); compound 5.0 µM): 169%
- residual activity (PRKAA1 or PRKAA2 (rat); compound 1.0 µM): 55%
- residual activity (PRKAA1 or PRKAA2 (rat); compound 5.0 µM): 27%
- residual activity (PRKAA1 or PRKAA2 (rat); compound 10.0 µM): 90%
- residual activity (SRPK1 (human); compound 1.0 µM): 62%
- residual activity (SRPK1 (human); compound 5.0 µM): 47%
- residual activity (SRPK1 (human); compound 10.0 µM): 84%
- residual activity (JAK2 JH1 JH2 (human); compound 1.0 µM): 72%
- residual activity (JAK2 JH1 JH2 (human); compound 5.0 µM): 34%
- residual activity (MAP2K1 (human); compound 1.0 µM): 85%
- residual activity (MAP2K1 (human); compound 5.0 µM): 18%
- residual activity (MAP2K1 (human); compound 10.0 µM): 96%
- residual activity (PHKG1 (human); compound 1.0 µM): 100%
- residual activity (PHKG1 (human); compound 5.0 µM): 103%
- residual activity (PHKG1 (human); compound 10.0 µM): 108%
- residual activity (MARK1 (human); compound 1.0 µM): 65%
- residual activity (MARK1 (human); compound 5.0 µM): 38%
- residual activity (MARK2 (human); compound 1.0 µM): 85%
- residual activity (MARK2 (human); compound 5.0 µM): 66%
- residual activity (NUAK1 (human); compound 1.0 µM): 11%
- residual activity (NUAK1 (human); compound 5.0 µM): 6%
- residual activity (MINK1 (human); compound 1.0 µM): 3%
- residual activity (MINK1 (human); compound 5.0 µM): 1%
- residual activity (MAPKAPK2 (human); compound 1.0 µM): 90%
- residual activity (MAPKAPK2 (human); compound 5.0 µM): 69%
- residual activity (MAPKAPK2 (human); compound 10.0 µM): 76%
- residual activity (RIPK2 (human); compound 1.0 µM): 117%
- residual activity (RIPK2 (human); compound 5.0 µM): 114%
- residual activity (BTK (human); compound 1.0 µM): 28%
- residual activity (BTK (human); compound 5.0 µM): 19%
- residual activity (BTK (human); compound 10.0 µM): 27%
- residual activity (CAMKK2 (human); compound 1.0 µM): 98%
- residual activity (CAMKK2 (human); compound 5.0 µM): 49%
- residual activity (CAMKK2 (human); compound 10.0 µM): 90%
- residual activity (EPHA2 (human); compound 1.0 µM): 91%
- residual activity (EPHA2 (human); compound 5.0 µM): 75%
- residual activity (EPHA2 (human); compound 10.0 µM): 97%
- residual activity (MST4 (human); compound 1.0 µM): 6%
- residual activity (MST4 (human); compound 5.0 µM): 8%
- residual activity (MST4 (human); compound 10.0 µM): 53%
- residual activity (DYRK2 (human); compound 1.0 µM): 68%
- residual activity (DYRK2 (human); compound 5.0 µM): 45%
- residual activity (DYRK2 (human); compound 10.0 µM): 64%
- residual activity (LCK (mouse); compound 1.0 µM): 99%
- residual activity (LCK (mouse); compound 5.0 µM): 99%
- residual activity (LCK (mouse); compound 10.0 µM): 90%
- residual activity (NEK6 (human); compound 1.0 µM): 34%
- residual activity (NEK6 (human); compound 5.0 µM): 11%
- residual activity (NEK6 (human); compound 10.0 µM): 65%
- residual activity (INSRR (human); compound 1.0 µM): 84%
- residual activity (INSRR (human); compound 5.0 µM): 47%
- residual activity (INSRR (human); compound 10.0 µM): 83%
- residual activity (CSK (human); compound 1.0 µM): 102%
- residual activity (CSK (human); compound 5.0 µM): 109%
- residual activity (CSK (human); compound 10.0 µM): 99%
- residual activity (MKNK1 (human); compound 1.0 µM): 88%
- residual activity (MKNK1 (human); compound 5.0 µM): 76%
- residual activity (MKNK1 (human); compound 10.0 µM): 100%
- residual activity (RPS6KA5 KD1 KD2 (human); compound 1.0 µM): 79%
- residual activity (RPS6KA5 KD1 KD2 (human); compound 5.0 µM): 65%
- residual activity (RPS6KA5 KD1 KD2 (human); compound 10.0 µM): 101%
- residual activity (BRSK1 (human); compound 1.0 µM): 29%
- residual activity (BRSK1 (human); compound 5.0 µM): 24%
- residual activity (PRKCA (human); compound 1.0 µM): 91%
- residual activity (PRKCA (human); compound 5.0 µM): 48%
- residual activity (PRKCA (human); compound 10.0 µM): 65%
- residual activity (PRKACA (human); compound 1.0 µM): 101%
- residual activity (PRKACA (human); compound 5.0 µM): 92%
- residual activity (PRKACA (human); compound 10.0 µM): 100%
- residual activity (EPHA4 (human); compound 1.0 µM): 98%
- residual activity (EPHA4 (human); compound 5.0 µM): 89%
